According to patent publication US9404081B2, “Pyruvate kinase activators for use in therapy” (AGIOS PHARMACEUTICALS, INC., priority 2011, dated 2016):

Legend:
Type in all cases: biochemical
[1] = target: PKR T384W (Homo sapiens, UniProt P30613, T384W); assay: PKR T384W Single Point Percent Activation Assay; conditions: read-out: Act. % 384W
Protocol: PKR T384W Single Point Percent Activation Assay
(§1) A compound described herein was diluted with DMSO and tested at 1 μM concentration. The enzyme was diluted in 1× Buffer: (100 mM KCl, 50 mM Tris 7.5, 5 mM MgCl2, 1 mM DTT, 0.03% BSA). 2 μL of compound solution was first added into wells, and then 180 μL enzyme solution was added. Assays were assembled except for ADP, and plates were stored for 60 minutes at RT. 20 μL ADP was added to start the assay and assay output was evaluated using OD340 at SpectraMax. The assay was run at room temperature.
Final concentration: PKR T384W soluble (300 ng/well), Tris pH 7.5 (50 mM), KCl (100 mM), MgCl2 (5 mM), ADP (0.08 mM), PEP (0.23 mM), NADH (180 μM), LDH (0.5 units, Sigma 59023), DTT (1 mM) and BSA (0.03%).

[2] = target: PKR R532W (Homo sapiens, UniProt P30613, R532W); assay: PKR R532W Single Point Percent Activation Assay; conditions: read-out: Act, % 532W
Protocol: PKR R532W Single Point Percent Activation Assay
as §1, with “180 μL of enzyme solution” for “180 μL enzyme solution”
Final concentration: PKR R532W (100 ng/well), Tris pH 7.5 (50 mM), KCl (100 mM), MgCl2 (5 mM), ADP (0.36 mM), PEP (0.1 mM), NADH (180 μM), LDH (0.5 units, Sigma 59023), DTT (1 mM) and BSA (0.03%).

[3] = target: PKR R510Q (Homo sapiens, UniProt P30613, R510Q); assay: PKR R510Q Single Point Percent Activation Assay; conditions: read-out: Act. % 510Q
Protocol: PKR R510Q Single Point Percent Activation Assay
as §1, with “180 μL of enzyme solution” for “180 μL enzyme solution”
Final concentration: PKR R510Q (40 ng/well), Tris pH 7.5 (50 mM), KCl (100 mM), MgCl2 (5 mM), ADP (0.2 mM), PEP (0.11 mM), NADH (180 μM), LDH (0.5 units, Sigma 59023), DTT (1 mM) and BSA (0.03%).

[4] = target: PKR wt (Homo sapiens, UniProt P30613); assay: PKR WT Single Point Percent Activation Assay
Protocol: PKR WT Single Point Percent Activation Assay
as §1, with “180 μL of enzyme solution” for “180 μL enzyme solution”
Final concentration: PKR wt (100 ng/well), Tris pH 7.5 (50 mM), KCl (100 mM), MgCl2 (5 mM), ADP (0.48 mM), PEP (0.15 mM), NADH (180 μM), LDH (0.5 units, Sigma 59023), DTT (1 mM) and BSA (0.03%).

PKR wt, sequence (P30613 whole entry): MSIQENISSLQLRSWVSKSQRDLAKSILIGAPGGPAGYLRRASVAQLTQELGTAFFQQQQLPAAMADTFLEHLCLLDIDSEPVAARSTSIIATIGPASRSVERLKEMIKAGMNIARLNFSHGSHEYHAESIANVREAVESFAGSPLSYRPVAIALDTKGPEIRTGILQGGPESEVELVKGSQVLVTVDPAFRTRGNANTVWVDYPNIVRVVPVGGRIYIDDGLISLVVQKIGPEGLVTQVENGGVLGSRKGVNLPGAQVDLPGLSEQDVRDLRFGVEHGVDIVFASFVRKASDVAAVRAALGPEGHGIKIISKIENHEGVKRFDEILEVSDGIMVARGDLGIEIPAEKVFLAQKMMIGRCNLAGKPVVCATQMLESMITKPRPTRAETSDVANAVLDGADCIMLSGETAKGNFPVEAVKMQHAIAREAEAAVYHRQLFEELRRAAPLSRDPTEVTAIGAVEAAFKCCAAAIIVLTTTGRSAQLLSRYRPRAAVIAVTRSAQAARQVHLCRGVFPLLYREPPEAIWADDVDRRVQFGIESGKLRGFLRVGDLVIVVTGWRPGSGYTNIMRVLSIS
PKR R510Q, sequence (P30613 whole entry R510Q): as the sequence (P30613 whole entry) above, with R510Q counted along it
PKR T384W, sequence (P30613 whole entry T384W): as the sequence (P30613 whole entry) above, with T384W counted along it
PKR R532W, sequence (P30613 whole entry R532W): as the sequence (P30613 whole entry) above, with R532W counted along it

| SMILES | activation at 1 µM [1] | activation at 1 µM [2] | activation at 1 µM [3] | activation at 1 µM [4] |
| --- | --- | --- | --- | --- |
| CC1CN(Cc2c(F)ccc(F)c2F)CC(C)N1C(=O)c1ccc(NS(=O)(=O)c2cccc3cccnc23)cc1 (stereo not drawn) | 1 to 100% | 101 to 500% | 1 to 100% | 1 to 100% |
| O=C(c1ccc(NS(=O)(=O)c2cccc3cccnc23)cc1)N1CCN(CC2CC2)C[C@@H]1c1ccccc1 | 1 to 100% | 1 to 100% | 1 to 100% | 1 to 100% |
| CC1CN(CC2CCOC2)CC(C)N1C(=O)c1ccc(NS(=O)(=O)c2cccc3cccnc23)cc1 (stereo not drawn) | 1 to 100% | 1 to 100% | 101 to 500% | 1 to 100% |
| O=C(c1ccc(NS(=O)(=O)c2cccc3cccnc23)cc1)N1C2CCC1CN(Cc1ccccc1)C2 | 101 to 500% | 101 to 500% | 101 to 500% | 101 to 500% |
| C[C@@H]1CN(C(=O)OCCC2CCCCC2)CCN1C(=O)c1ccc(NS(=O)(=O)c2cccc3cccnc23)cc1 | 1 to 100% | 1 to 100% | 1 to 100% | 1 to 100% |
| O=C(c1ccc(NS(=O)(=O)c2cccc3cccnc23)cc1)N1CC2CCC(C1)N2Cc1ccccc1 | 101 to 500% | 101 to 500% | 101 to 500% | 101 to 500% |
| O=C1CN(C(=O)c2ccc(NS(=O)(=O)c3cccc4cccnc34)cc2)CCN1CC1CC1 | 101 to 500% | 1 to 100% | 1 to 100% | 101 to 500% |

Next, values leading:

| activation at 1 µM [1] | activation at 1 µM [2] | activation at 1 µM [3] | activation at 1 µM [4] | SMILES |
| --- | --- | --- | --- | --- |
| 101 to 500% | 1 to 100% | 1 to 100% | 1 to 100% | C[C@H]1CN(Cc2cc(F)c(F)cc2F)CCN1C(=O)c1ccc(NS(=O)(=O)c2cccc3cccnc23)cc1 |
| 1 to 100% | 101 to 500% | 1 to 100% | 101 to 500% | C[C@H]1CN(CC2CC2)CCN1C(=O)c1ccc(NS(=O)(=O)c2cccc3cccnc23)cc1 |
| 1 to 100% | 101 to 500% | 1 to 100% | 1 to 100% | C[C@H]1CN(Cc2ccc(F)cc2)CCN1C(=O)c1ccc(NS(=O)(=O)c2cccc3cccnc23)cc1Cl |
| 101 to 500% | 101 to 500% | 1 to 100% | 101 to 500% | C[C@@H]1CN(C[C@H]2CCCO2)CCN1C(=O)c1ccc(NS(=O)(=O)c2cccc3cccnc23)cc1 |
| 101 to 500% | 1 to 100% | 101 to 500% | 1 to 100% | CC(c1cc(F)c(F)c(F)c1)N1CCN(C(=O)c2ccc(NS(=O)(=O)c3cccc4cccnc34)cc2)[C@H](C)C1 (stereo partly drawn) |
| 101 to 500% | 1 to 100% | 1 to 100% | 101 to 500% | C[C@H]1CN(Cc2cc(F)cc(F)c2F)CCN1C(=O)c1ccc(NS(=O)(=O)c2cccc3cccnc23)cc1 |
| 101 to 500% | 101 to 500% | 101 to 500% | 101 to 500% | CC(c1cc(F)cc(F)c1)N1CCN(C(=O)c2ccc(NS(=O)(=O)c3cccc4cccnc34)cc2)[C@H](C)C1 (stereo partly drawn) |
| 101 to 500% | 101 to 500% | 101 to 500% | 101 to 500% | O=C1CN(C(=O)c2ccc(NS(=O)(=O)c3cccc4cccnc34)cc2)CCN1Cc1cc(F)cc(F)c1 |
| 1 to 100% | 101 to 500% | 101 to 500% | 101 to 500% | C[C@@H]1CN(CC2CCC2)CCN1C(=O)c1ccc(NS(=O)(=O)c2cccc3cccnc23)cc1 |
| 101 to 500% | 101 to 500% | 1 to 100% | 101 to 500% | C[C@H]1CN(C(=O)c2ccc(NS(=O)(=O)c3cccc4cccnc34)cc2)CCN1C(=O)c1ccccn1 |
| 1 to 100% | 1 to 100% | 1 to 100% | 1 to 100% | CC(c1cc(F)cc(F)c1)N1CCN(C(=O)c2ccc(NS(=O)(=O)c3cccc4cccnc34)cc2)[C@@H](C)C1 (stereo partly drawn) |
